{
  "source": "ChEMBL document CHEMBL2429781",
  "about": "“Cell-based medicinal chemistry optimization of high-throughput screening (HTS) hits for orally active antimalarials. Part 1: challenges in potency and absorption, distribution, metabolism, excretion/pharmacokinetics (ADME/PK)” (J Med Chem, 2013)",
  "key": {"Plasmodium falciparum [1]": {"test_system": "Plasmodium falciparum", "assay": "Antiplasmodial activity against atovaquone-resistant Plasmodium falciparum Tm90.C2B after 72 hrs by MSF assay", "assay_type": "functional, organism-based"}, "[2]": {"assay": "Half life in mouse hepatic microsomes by LC/MS analysis in presence of NADPH", "assay_type": "ADME", "conditions": "liver microsomes"}, "Plasmodium falciparum [3]": {"test_system": "Plasmodium falciparum", "assay": "Antiplasmodial activity against Plasmodium falciparum after 72 hrs by MSF assay", "assay_type": "functional, organism-based"}, "Plasmodium falciparum [4]": {"test_system": "Plasmodium falciparum", "assay": "Antiplasmodial activity against Plasmodium falciparum W2", "assay_type": "functional, organism-based"}, "[5]": {"molecular_target": "Voltage-gated inwardly rectifying potassium channel KCNH2 (Homo sapiens, UniProt Q12809)", "sequence (Q12809 whole entry)": "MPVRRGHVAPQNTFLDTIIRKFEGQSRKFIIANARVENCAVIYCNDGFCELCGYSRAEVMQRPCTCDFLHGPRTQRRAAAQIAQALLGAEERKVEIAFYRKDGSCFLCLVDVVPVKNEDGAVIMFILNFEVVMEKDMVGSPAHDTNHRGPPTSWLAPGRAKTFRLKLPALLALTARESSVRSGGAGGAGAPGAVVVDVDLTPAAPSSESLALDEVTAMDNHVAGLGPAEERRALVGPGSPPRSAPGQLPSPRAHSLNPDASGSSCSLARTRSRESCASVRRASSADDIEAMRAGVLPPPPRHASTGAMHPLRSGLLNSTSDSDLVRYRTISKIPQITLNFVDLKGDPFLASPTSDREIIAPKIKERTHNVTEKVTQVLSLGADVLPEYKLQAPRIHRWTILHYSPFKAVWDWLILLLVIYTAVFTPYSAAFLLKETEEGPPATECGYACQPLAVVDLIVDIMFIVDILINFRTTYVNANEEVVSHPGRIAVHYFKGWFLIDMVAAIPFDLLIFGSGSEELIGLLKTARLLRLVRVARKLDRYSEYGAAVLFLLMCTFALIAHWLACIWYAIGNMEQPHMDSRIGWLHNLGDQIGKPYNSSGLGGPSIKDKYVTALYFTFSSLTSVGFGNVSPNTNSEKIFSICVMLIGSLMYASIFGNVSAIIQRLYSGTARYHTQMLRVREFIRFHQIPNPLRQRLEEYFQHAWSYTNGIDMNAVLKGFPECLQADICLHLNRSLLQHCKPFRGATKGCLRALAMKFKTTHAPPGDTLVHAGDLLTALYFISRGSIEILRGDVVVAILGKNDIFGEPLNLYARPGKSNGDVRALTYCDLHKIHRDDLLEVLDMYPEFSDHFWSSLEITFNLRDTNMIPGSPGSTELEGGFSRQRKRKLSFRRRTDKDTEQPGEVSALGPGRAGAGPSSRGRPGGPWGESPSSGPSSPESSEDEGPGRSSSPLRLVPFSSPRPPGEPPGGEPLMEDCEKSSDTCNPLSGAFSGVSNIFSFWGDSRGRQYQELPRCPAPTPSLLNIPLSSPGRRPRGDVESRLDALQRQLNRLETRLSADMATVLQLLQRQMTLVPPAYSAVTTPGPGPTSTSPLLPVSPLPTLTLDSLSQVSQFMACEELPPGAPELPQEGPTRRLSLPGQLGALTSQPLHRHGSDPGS", "assay": "Binding affinity to human ERG channel"}, "Plasmodium falciparum [6]": {"test_system": "Plasmodium falciparum", "assay": "Antiplasmodial activity against wild type Plasmodium falciparum 3D7", "assay_type": "functional, organism-based"}, "Plasmodium": {"test_system": "Plasmodium", "assay": "Antimicrobial activity against Plasmodium", "assay_type": "functional"}, "Plasmodium falciparum [7]": {"test_system": "Plasmodium falciparum", "assay": "Antiplasmodial activity against chloroquine-sensitive Plasmodium falciparum 3D7", "assay_type": "functional, organism-based"}, "[8]": {"assay": "Elimination half life in CD-1 mouse at 5 mg/kg, po", "assay_type": "ADME, organism-based", "set-up": "dose 5 mg/kg, route oral", "conditions": "in vivo, read-out: beta t1/2 (converted)"}, "Plasmodium falciparum [9]": {"test_system": "Plasmodium falciparum", "assay": "Antiplasmodial activity against blood stage Plasmodium falciparum 3D7 by SYBR Green method", "assay_type": "functional, organism-based"}, "Plasmodium berghei": {"test_system": "Plasmodium berghei", "assay": "Antiplasmodial activity against Plasmodium berghei infected po dosed CD-1 mouse model administered qd measured on day 4", "assay_type": "functional", "conditions": "96 h"}, "Plasmodium falciparum [10]": {"test_system": "Plasmodium falciparum", "assay": "Antiplasmodial activity against blood stage form of Plasmodium falciparum NF54", "assay_type": "functional, organism-based"}, "[11]": {"assay": "Half life in mouse liver microsomes", "assay_type": "ADME, Microsome"}, "Plasmodium falciparum [12]": {"test_system": "Plasmodium falciparum", "assay": "Antiplasmodial activity against Plasmodium falciparum W2/Indochina after 72 hrs by SYBR Green method", "assay_type": "functional"}, "[13]": {"assay": "Aqueous solubility of the compound", "assay_type": "physicochemical", "conditions": "aqueous (not further specified)"}, "[14]": {"assay": "Solubility of the compound at pH 6.8", "assay_type": "physicochemical", "conditions": "buffer"}, "Plasmodium falciparum [15]": {"test_system": "Plasmodium falciparum", "assay": "Antimicrobial activity against clinical isolates of Plasmodium falciparum", "assay_type": "functional, organism-based"}},
  "note": "pEC50, pIC50: −log10 of the molar value.",
  "data": [
    {"molecule": "CCCCCCCc1c(C)[nH]c2cc(F)cc(F)c2c1=O", "values": [
      {"measurement": "pEC50", "setting": "Plasmodium falciparum [1]", "value": 7.10},
      {"measurement": "half-life", "setting": "[2]", "value": 14.7, "unit": "min"},
      {"measurement": "pEC50", "setting": "Plasmodium falciparum [3]", "value": 10.00}
    ]},
    {"molecule": "CC1(C)c2nc(-c3ccc(F)cc3)c(Nc3ccc(Cl)cc3)n2CCN1C(=O)CN", "values": [
      {"measurement": "pEC50", "setting": "Plasmodium falciparum [4]", "value": 8.22},
      {"measurement": "pIC50", "setting": "[5]", "value": 5.14}
    ]},
    {"molecule": "COc1ccc2c(=O)c(CCCCCC(F)(F)F)c(C)[nH]c2c1", "values": [
      {"measurement": "pEC50", "setting": "Plasmodium falciparum [1]", "value": 7.18},
      {"measurement": "pEC50", "setting": "Plasmodium falciparum [3]", "value": 7.52}
    ]},
    {"molecule": "CCOC(=O)c1c(C)[nH]c2cc(Cc3ccc(OC(F)(F)F)cc3)ccc2c1=O", "values": [
      {"measurement": "pEC50", "setting": "Plasmodium falciparum [6]", "value": 9.34}
    ]},
    {"molecule": "Cc1nc(C)c(Cl)c(O)c1Cl", "note": "[CLOPIDOL]", "values": [
      {"measurement": "pEC50", "setting": "Plasmodium", "value": 4.70}
    ]},
    {"molecule": "FC(F)(F)Oc1ccc(Nc2cc(Nc3nccn3-c3cccc(C(F)(F)F)c3)ncn2)cc1", "values": [
      {"measurement": "pEC50", "setting": "Plasmodium falciparum [7]", "value": 6.38}
    ]},
    {"molecule": "CCOC(=O)c1c(-c2ccc(-c3ccc(OC(F)(F)F)cc3)cn2)[nH]c2ccccc2c1=O", "values": [
      {"measurement": "half-life", "setting": "[8]", "value": 636, "unit": "min"},
      {"measurement": "pEC50", "setting": "Plasmodium falciparum [9]", "value": 7.52},
      {"measurement": "ED50", "setting": "Plasmodium berghei", "value": 2, "unit": "mg/kg"}
    ]},
    {"molecule": "C[C@H]1Cc2c([nH]c3cc(Cl)c(F)cc23)[C@@]2(N1)C(=O)Nc1ccc(Cl)cc12", "note": "[CIPARGAMIN]", "values": [
      {"measurement": "pEC50", "setting": "Plasmodium falciparum [10]", "value": 9.00}
    ]},
    {"molecule": "O=c1c2c([nH]c3ccc(-c4ccc(C(F)(F)F)cc4)cc13)CCSC2", "values": [
      {"measurement": "half-life", "setting": "[11]", "value": "> 180", "unit": "min"},
      {"measurement": "Activity", "setting": "Plasmodium falciparum [12]", "value": 30, "unit": "nM"},
      {"measurement": "solubility", "setting": "[13]", "value": 2, "unit": "µM"}
    ]},
    {"molecule": "COc1cc2[nH]c(C)c(-c3ccc(Oc4ccc(OC(F)(F)F)cc4)cc3)c(=O)c2cc1Cl", "values": [
      {"measurement": "solubility", "setting": "[14]", "value": "< 1", "unit": "µM"},
      {"measurement": "pEC50", "setting": "Plasmodium falciparum [15]", "value": 9.00}
    ]}
  ]
}
